Tested on: NCI-H1417 complex spheroids, growth % test/control
Assay: Anticancer human tumor NCI-H1417 cell line growth inhibition [Asc];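 also: spheroids exposed to compounds for 7 days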;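 as to viability, T/C: 100% = DMSO vehicle control wells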
Details: for IC50: curve of first compound; for viability, T/C: stronger effect = lower value
Description: Multicellular complex tumor spheroid response to apoptosis pathway targeting inhibitors Alrizomadlin, Pelcitoclax, and Dasminapant in combination with a variety of drugs and investigational agents in selected tumor cell lines
The MDM2 inhibitor alrizomadlin, the Bcl-2/Bcl-xL inhibitor pelcitoclax, and the IAPs inhibitor dasminapant were evaluated both individually and in combination with standard of care and investigational anticancer small molecules within a complex spheroid model of solid tumors. . Complex spheroids include a stromal component modeled by human endothelial cells (HUVEC) and fibroblasts modeled by human mesenchymal stem cells (MSCs). The concentration ranges selected for each drug and investigational agent were based upon clinically achievable concentrations if the clinical Cmax of the agent was known.
Compounds. The drugs and investigational agents: alrizomadlin (APG-115; NSC831270), pelcitoclax (APG-1252; NSC835773), dasminapant (APG-1387;NSC834197), TAK-243 (NSC785004), copanlisib (NSC809693), olaparib (NSC753686), talazoparib (NSC767125), cobimetinib (NSC 768068), eltanexor (KPT-8602, NSC 794443), abemaciclib (NSC 768073), sotorasib (NSC818433), adagrasib (NSC 831453), MRTX-1133 (NSC 836407), Iadademestat (ORY1001, NSC 806812), and RMC-4630 (NSC839698), were obtained from the NCI Developmental Therapeutics Program Chemical Repository. The FDA-approved anticancer drug set is available from the Developmental Therapeutics Program at https://dtp.cancer.gov/organization/dscb/obtaining/available plates.htm. […] The stock solutions were prepared in dimethyl sulfoxide (DMSO, Sigma-Aldrich, St. Louis, MO, cat. D2650) at 800-fold the tested concentration and stored at -70 degrees C prior to their use. All drugs and investigational agents were tested over a range starting from a high concentration at or near the clinical Cmax and decreasing in half-log increments. If the clinical Cmax for an agent had not been determined, the highest concentration tested was 10 microM.
The patient-derived cancer (PDC) cell lines include five colon adenocarcinomas: 186277-243-T-J2-PDC, 616215-338-R-J1-PDC, 439559-082-T-J2-PDC, 463943-066-T-J2-PDC, and 519858-162-T-J1-PDC; three pancreatic carcinomas: 323965-272-R-J2-PDC, 521955-158-R6-J3-PDC, and 521955-158-R2-J5-PDC; two uterine sarcomas: 327498-152-R-J2-PDC and 993429-296-R-J1-PDC; two rhabdomyosarcomas: 755483-174-R-J1-PDC and 772245-204-R-J1-PDC; two soft tissue sarcomas: 126254-015-R-J1-PDC and 494315-158-R-J1-PDC; two malignant fibrous histiocytomas: 317291-083-R-J1-PDC and 596521-263-R-J1-PDC; two breast carcinomas: 171881-019-R-J1-PDC and 885512-296-R-J2-PDC; and one ovarian carcinoma: 6556581-035-R-J-PDC were obtained from the NCI PDMR, (https://pdmr.cancer.gov). The established cell lines HSSY-2 synovial sarcoma (RRID:CVCL 8719), SYO-1 synovial sarcoma (RRID:CVCL_7146), MPNST malignant peripheral neural sheath tumor were obtained from the Sloan Kettering Institute. The following established cell lines were purchased from the American Type Culture Collection (ATCC, Manassas, VA), Sor the received from the NCI repository:, PANC-1 pancreatic carcinoma (CRL-1469, RRID:CVCL_0480), OVCAR-5 ovarian carcinoma (RRID:CVCL_1628), OVCAR-8 ovarian carcinoma (RRID:CVCL_1629), , MCF-7 breast carcinoma (CRL-12584, RRID:CVCL_0031), MDA-MB-231 breast carcinoma (CRL-12532, RRID:CVCL_0062), NCI-H1876 small cell lung carcinoma (CRL-5902, RRID:CVCL_1503), NCI-H510A small cell lung carcinoma (HTB-184, RRID:CVCL_1565), NCI-H1417 (CRL-5869, RRID:CVCL_1469), and NCI-H196 small cell lung carcinoma (CRL-5823, RRID:CVCL_1509). Dr. Peter Houghton (Greehey Children's Cancer Research Institute, University of Texas Health Science Center, San Antonio, TX) provided Rh-18 rhabdomyosarcoma (RRID:CVCL_1659). Pooled donor human umbilical vein endothelial cells (HUVEC, Lonza, cat. CC-2519) and human mesenchymal stem cells (hMSC, Lonza, cat. PT-2501) were purchased from Lonza (Walkersville, MD).
Cell Culture. […]

## CCN1CCN(Cc2ccc(Nc3ncc(F)c(-c4cc(F)c5nc(C)n(C(C)C)c5c4)n3)nc2)CC1 + CNC(C)C(=O)NC1CN(S(=O)(=O)c2cccc(S(=O)(=O)N3CCC4CCC(C(=O)NC(c5ccccc5)c5ccccc5)N4C(=O)C(NC(=O)C(C)NC)C3)c2)CCC2CCC(C(=O)NC(c3ccccc3)c3ccccc3)N2C1=O
Second compound 0.01 µM
  IC50: > 1 µM
Second compound 0.0316 µM
  IC50: > 1 µM
Second compound 0.1 µM
  IC50: > 1 µM
Second compound 0.316 µM
  IC50: > 1 µM
Second compound 1 µM
  IC50: > 1 µM
Second compound 0.01 µM, first compound 0.00316 µM
  viability, T/C: 100%
Second compound 0.01 µM, first compound 0.01 µM
  viability, T/C: 108%
Second compound 0.01 µM, first compound 0.0316 µM
  viability, T/C: 106%
Second compound 0.01 µM, first compound 0.1 µM
  viability, T/C: 99.7%
Second compound 0.01 µM, first compound 0.316 µM
  viability, T/C: 96.5%
Second compound 0.01 µM, first compound 1 µM
  viability, T/C: 111%
Second compound 0.0316 µM, first compound 0.00316 µM
  viability, T/C: 102%
Second compound 0.0316 µM, first compound 0.01 µM
  viability, T/C: 103%
Second compound 0.0316 µM, first compound 0.0316 µM
  viability, T/C: 104%
Second compound 0.0316 µM, first compound 0.1 µM
  viability, T/C: 105%
Second compound 0.0316 µM, first compound 0.316 µM
  viability, T/C: 97.4%
Second compound 0.0316 µM, first compound 1 µM
  viability, T/C: 103%
Second compound 0.1 µM, first compound 0.00316 µM
  viability, T/C: 93.2%
Second compound 0.1 µM, first compound 0.01 µM
  viability, T/C: 101%
Second compound 0.1 µM, first compound 0.0316 µM
  viability, T/C: 99.2%
Second compound 0.1 µM, first compound 0.1 µM
  viability, T/C: 97.8%
Second compound 0.1 µM, first compound 0.316 µM
  viability, T/C: 103%
Second compound 0.1 µM, first compound 1 µM
  viability, T/C: 109%
Second compound 0.316 µM, first compound 0.00316 µM
  viability, T/C: 99.3%
Second compound 0.316 µM, first compound 0.01 µM
  viability, T/C: 105%
Second compound 0.316 µM, first compound 0.0316 µM
  viability, T/C: 90.6%
Second compound 0.316 µM, first compound 0.1 µM
  viability, T/C: 99.9%
Second compound 0.316 µM, first compound 0.316 µM
  viability, T/C: 95.2%
Second compound 0.316 µM, first compound 1 µM
  viability, T/C: 97.7%
Second compound 1 µM, first compound 0.00316 µM
  viability, T/C: 105%
Second compound 1 µM, first compound 0.01 µM
  viability, T/C: 109%
Second compound 1 µM, first compound 0.0316 µM
  viability, T/C: 101%
Second compound 1 µM, first compound 0.1 µM
  viability, T/C: 110%
Second compound 1 µM, first compound 0.316 µM
  viability, T/C: 90%
Second compound 1 µM, first compound 1 µM
  viability, T/C: 93.7%

Source: PubChem BioAssay AID1963440 (Molecular Pharmacology Branch, DTP, NCI, 2024)
